Results as given in patent US10814019B2, “MRI signal suppression agents, compositions, and methods” (University of Washington, priority 2014, dated 2020).

Experiments:
[1] = mDixon signal intensity of whole venous blood samples containing Ablavar; assay type: physicochemical
Protocol: Six in vitro whole venous blood samples each contained a different concentration (0, 2, 4, 6, 8, and 12 mM) of gadofosveset trisodium (Ablavar). For long echo time pairs (e.g., 11.5 ms/12.7 ms), the signal intensity decreased rapidly with Ablavar concentration greater than about 4 mM.

[2] = in vivo; cited from earlier work

O=C([O-])CN(CCN(CC(=O)[O-])CC(COP(=O)([O-])OC1CCC(c2ccccc2)(c2ccccc2)CC1)N(CC(=O)[O-])CC(=O)[O-])CC(=O)[O-].[Gd+3].[Na+].[Na+].[Na+] (stereo not drawn) [Ablavar, gadofosveset trisodium]
signal intensity relative to pure blood ([1]; 12 mM Ablavar, echo times as short as 6.9 ms/8.1 ms): below that of pure blood
Ablavar concentration above which signal intensity decreased rapidly ([1]; long echo time pairs (e.g., 11.5 ms/12.7 ms)): greater than 4 mM
half-life [2]: about 30 minutes
